{"source": "paper PMC12150326", "about": "(The Journal of Organic Chemistry, 2025)", "origin": "cited, not measured here", "design_in_all_cases": "method as in NCI-60 database", "key": {"[1]": {"system": "A549/ATCC", "conditions": "A549/ATCC ref NCI-60 database, cited from earlier work"}, "[2]": {"system": "HL-60(TB)", "conditions": "HL-60(TB) ref NCI-60 database, cited from earlier work"}, "[3]": {"system": "KM12", "conditions": "cited from earlier work"}, "[4]": {"system": "UACC-62", "conditions": "UACC-62 ref NCI-60 database, cited from earlier work"}, "[5]": {"system": "DLD-1", "conditions": "DLD-1 ref NCI-60 database, cited from earlier work"}, "[6]": {"system": "SNB-19", "conditions": "SNB-19 ref NCI-60 database, cited from earlier work"}, "[7]": {"system": "HCT-116", "conditions": "HCT-116 ref NCI-60 database, cited from earlier work"}, "[8]": {"system": "MDA-MB-231/ATCC", "conditions": "MDA-MB-231/ATCC ref NCI-60 database, cited from earlier work"}, "[9]": {"system": "SW-620", "conditions": "SW-620 ref NCI-60 database, cited from earlier work"}, "[10]": {"system": "HOP-92", "conditions": "HOP-92 ref NCI-60 database, cited from earlier work"}, "[11]": {"system": "SK-MEL-28", "conditions": "SK-MEL-28 ref NCI-60 database, cited from earlier work"}, "[12]": {"conditions": "KM12 ref NCI-60 database, listed as 757/9"}}, "note": "Where “and” joins values, the source holds several entries; their conditions need not be identical. Equal values may be shown once. Read-outs that look alike come from different tables or passages of the source."}
{"smiles": "COc1cc2c(c(OC)c1OC)-c1ccc(OC)c(=O)cc1[C@@H](NC(C)=O)CC2", "note": "[Colchicine, (−)-Colchicine]", "values": [{"measurement": "GI50", "setting": "[1]", "result": 260, "unit": "nM"}, {"measurement": "Log10GI50", "setting": "[1]", "result": -6.58, "unit": "Molar"}, {"measurement": "Log10LC50", "setting": "[1]", "result": "> -4.00", "unit": "Molar"}, {"measurement": "Log10TGI", "setting": "[1]", "result": "> -4.00", "unit": "Molar"}, {"measurement": "Log10GI50", "setting": "[1]; listed as 757/9", "result": -6.57, "unit": "Molar"}, {"measurement": "GI50", "setting": "[2]", "result": 10, "unit": "nM"}, {"measurement": "Log10GI50", "setting": "[2]", "result": -7.89, "unit": "Molar"}, {"measurement": "Log10LC50", "setting": "[2]", "result": "> -4.00", "unit": "Molar"}, {"measurement": "Log10GI50", "setting": "[2]; listed as 757/1", "result": -7.58, "unit": "Molar"}, {"measurement": "Log10GI50", "setting": "[2]; listed as 757/21", "result": "< -8.00 Molar and -7.89 Molar"}, {"measurement": "GI50", "setting": "[3]; KM12 (printed KM29) ref NCI-60 database", "result": 40, "unit": "nM"}, {"measurement": "Log10GI50", "setting": "[3]; KM12 ref NCI-60 database", "result": -7.35, "unit": "Molar"}, {"measurement": "Log10GI50", "setting": "[3]; KM12 ref NCI-60 database, listed as 757/1", "result": -7.65, "unit": "Molar"}, {"measurement": "Log10GI50", "setting": "[3]; [12]", "result": -7.67, "unit": "Molar"}, {"measurement": "Log10LC50", "setting": "[3]; [12]", "result": -7.04, "unit": "Molar"}, {"measurement": "Log10TGI", "setting": "[3]; [12]", "result": -7.95, "unit": "Molar"}, {"measurement": "Log10LC50", "setting": "[3]; KM12 ref NCI-60 database, listed as 757/21", "result": "> -4.00", "unit": "Molar"}, {"measurement": "GI50", "setting": "[4]", "result": 21, "unit": "nM"}, {"measurement": "Log10GI50", "setting": "[4]", "result": -7.67, "unit": "Molar"}, {"measurement": "Log10GI50", "setting": "[4]; listed as 757/1", "result": -7.19, "unit": "Molar"}, {"measurement": "Log10GI50", "setting": "[4]; listed as 757/9", "result": -6.40, "unit": "Molar"}, {"measurement": "Log10LC50", "setting": "[4]; listed as 757/9", "result": -6.18, "unit": "Molar"}, {"measurement": "Log10TGI", "setting": "[4]; listed as 757/9", "result": -7.72, "unit": "Molar"}, {"measurement": "Log10LC50", "setting": "[4]; listed as 757/21", "result": "> -4.00 Molar and -4.22 Molar"}, {"measurement": "Log10LC50", "setting": "[5]", "result": "> -4.00", "unit": "Molar"}, {"measurement": "Log10TGI", "setting": "[5]", "result": "> -4.00", "unit": "Molar"}, {"measurement": "Log10GI50", "setting": "[5]; listed as 757/1", "result": -7.35, "unit": "Molar"}, {"measurement": "GI50", "setting": "[6]", "result": 40, "unit": "nM"}, {"measurement": "Log10GI50", "setting": "[6]", "result": -7.43, "unit": "Molar"}, {"measurement": "Log10LC50", "setting": "[6]", "result": "> -4.00", "unit": "Molar"}, {"measurement": "Log10GI50", "setting": "[6]; listed as 757/1", "result": "< -8.00", "unit": "Molar"}, {"measurement": "Log10GI50", "setting": "[6]; listed as 757/9", "result": -7.55, "unit": "Molar"}, {"measurement": "Log10GI50", "setting": "[6]; listed as 757/21", "result": "-7.22 Molar and -7.43 Molar"}, {"measurement": "GI50", "setting": "[7]", "result": 30, "unit": "nM"}, {"measurement": "Log10GI50", "setting": "[7]", "result": -7.49, "unit": "Molar"}, {"measurement": "Log10LC50", "setting": "[7]", "result": "> -4.00", "unit": "Molar"}, {"measurement": "Log10GI50", "setting": "[7]; listed as 757/1", "result": -7.41, "unit": "Molar"}, {"measurement": "Log10TGI", "setting": "[7]; listed as 757/1", "result": "> -4.00 Molar and -4.23 Molar"}, {"measurement": "Log10GI50", "setting": "[7]; listed as 757/9", "result": -7.79, "unit": "Molar"}, {"measurement": "GI50", "setting": "[8]", "result": 7080, "unit": "nM"}, {"measurement": "Log10GI50", "setting": "[8]", "result": -5.15, "unit": "Molar"}, {"measurement": "Log10LC50", "setting": "[8]", "result": "> -4.00", "unit": "Molar"}, {"measurement": "Log10TGI", "setting": "[8]", "result": "> -4.00", "unit": "Molar"}, {"measurement": "Log10GI50", "setting": "[8]; listed as 757/9", "result": "< -8.00 Molar and -7.78 Molar"}, {"measurement": "Log10GI50", "setting": "[8]; listed as 757/21", "result": -5.15, "unit": "Molar"}, {"measurement": "GI50", "setting": "[9]", "result": 20, "unit": "nM"}, {"measurement": "Log10GI50", "setting": "[9]", "result": -7.66, "unit": "Molar"}, {"measurement": "Log10LC50", "setting": "[9]", "result": "> -4.00", "unit": "Molar"}, {"measurement": "Log10GI50", "setting": "[9]; listed as 757/1", "result": -7.46, "unit": "Molar"}, {"measurement": "Log10LC50", "setting": "[10]", "result": "> -4.00", "unit": "Molar"}, {"measurement": "Log10GI50", "setting": "[10]; listed as 757/1", "result": -7.73, "unit": "Molar"}, {"measurement": "Log10TGI", "setting": "[10]; listed as 757/1", "result": "> -4.00", "unit": "Molar"}, {"measurement": "Log10GI50", "setting": "[10]; listed as 757/21", "result": "< -8.00", "unit": "Molar"}, {"measurement": "Log10GI50", "setting": "[11]; listed as 757/1", "result": -7.02, "unit": "Molar"}, {"measurement": "Log10LC50", "setting": "[11]; listed as 757/9", "result": -4.44, "unit": "Molar"}, {"measurement": "Log10TGI", "setting": "[11]; listed as 757/9", "result": -4.95, "unit": "Molar"}, {"measurement": "Log10LC50", "setting": "[11]; listed as 757/21", "result": "> -4.00", "unit": "Molar"}, {"measurement": "Log10TGI", "setting": "[11]; listed as 757/21", "result": "> -4.00", "unit": "Molar"}]}
